In one assay the test system is MCMV (Smith strain). As to the kind of experiment: MCMV infection of BALB/c mice. Conditions: after infection, 10 mg/kg twice daily for 5 days. It counts as in vivo, mouse. As to the method: Animal work was carried out in strict accordance with the recommendations in the Guide for the Care and Use of Laboratory Animals of the National Institutes of Health. The animal protocol (number MO13M296) was approved by the Institutional Animal Care and Use Committee (IACUC) of Johns Hopkins University. For infection experiments 3-4 week old BALB/c mice were purchased from Harlan Laboratories (Indianapolis, Ind.). […] IMMUNOL. 980-86 (2011)) or saline intraperitoneally. Blood was collected 4 h after the second dose of iE-DAP for measurement of RANTES by ELISA (R&D Biosystems, Minneapolis, Minn.). Mice were infected with 10^6 PFU tissue culture derived MCMV (Smith strain, ATCC, VR-1399) and scarified after 14 days. Intracardiac blood was collected prior to sacrifice for gB real-time PCR assay (Vliegen et al., 98(1) VIRUS RES. 17-25 (2003)). Salivary glands, liver and spleen were harvested and stored at −80° C. Organs were homogenized in DMEM at a final concentration of 100 mg/mL Two million mouse embryonic fibroblast (MEFs) were seeded into 24-well plates. From each sample, 2.5% of the salivary gland or 10% of liver/spleen homogenate was used for infection of MEFs in triplicates. Plaques were counted after three days.
At 14 days' post infection mice were scarified, intracardiac blood was collected and tissue homogenates were prepared for plaque assays.

For another assay, the system named is HIV-1. The note with it: acutely infected monocyte-derived macrophages and dendritic cells; cited from earlier work.
Assay [1] deals with pp28-luciferase Towne strain. As to the kind of experiment: pp28-luciferase HCMV replication assay (first and second cycle). In kind it is cell-based, human cytomegalovirus. As for the experimental part:
Human Foreskin Fibroblasts (HFFs) passage 12-16 (ATCC, CRL-2088™) were grown in Dulbecco's Modified Eagle Medium (DMEM) containing 10% fetal bovine serum (FBS) (Gibco, Carlsbad, Calif.) in a 5% CO2 incubator at 37° C. The generation of NOD2-KD HFFs (HFF-shNOD2) and control cells (HFF-GIPZ) was reported. One day prior to infection or treatment, 8×10^4 cells were seeded into each well of 12-well tissue culture plates. Multiplicities of infection were specified for each experiment. The Towne HCMV strain was obtained from ATCC (VR-977). The pp28-luciferase Towne strain which expresses luciferase under the control of the pp28 late promoter has been described. Luciferase activity was measured at 72 or 96 hours post infection (hpi) using the Glomax-Multi+ Detection System (Promega, Madison, Wis.). In second cycle replication assays cell free supernatants from HFFs infected with pp28-luciferase Towne were collected 4 days post completion of first replication cycle (5-10% of total volume/well), and used for infection of fresh HFFs seeded into 12-well plates. Cell lysates were collected after 72 h for luciferase activity. Supernatants from the first cycle were also used to measure virus titer in 12-well plates and plaques were counted at day 8 post infection. A purified preparation of the pp28-luciferase Towne strain was prepared by ultracentrifugation using sucrose gradient. The HCMV TB40 strain was obtained from ATCC (VR-1578). Clinical isolates of HCMV were obtained from the microbiology laboratory at Johns Hopkins Hospital with no identifiers that could be linked to a patient. The Johns Hopkins School of Medicine Office of Human Subject Research Institutional Review Board (IRB-X) determined that the research qualified for an exemption.

As for `Nc1nc(O)c2ncn(COC(CO)CO)c2n1` [Ganciclovir], in the assay with MCMV (Smith strain), the MCMV inhibition entry is recorded as “inhibited MCMV”.

`CCCCOC(=O)[C@@H](CCC(N)=O)NC(=O)[C@H](C)NC(=O)[C@@H](C)O[C@H]1[C@H](O)[C@@H](CO)OC(O)[C@@H]1NC(C)=O` (stereo partly shown) [MB, murabutide]: the HIV-1 replication result with HIV-1 is given as “significantly inhibits HIV-1 replication”.

For `C[C@H](N)C(=O)N[C@H](CCC(=O)NC(CCCC(N)C(=O)O)C(=O)O)C(=O)O` (stereo partly drawn) [Tri-DAP, L-Ala-γ-D-Glu-meso-diamino-pimelic acid], the “CMV inhibition (luciferase, protein expression, plaques)” value in assay [1] (Tri-DAP 10 μg/mL after infection, 72 hpi) is “results in CMV inhibition”. Further, the CMV replication result in assay [1] (Tri-DAP 10 μg/mL pretreatment 18 or 72 h, MOI 1) was “inhibits CMV replication”.

These data come from patent publication US20170021014A1, “VACCINE ADJUVANTS FOR CYTOMEGALOVIRUS PREVENTION AND TREATMENT” (THE JOHNS HOPKINS UNIVERSITY, priority 2015, published 2017).
